Measured values: paper PMC5936838, “Structural implications of hERG K^+ channel block by a high-affinity minimally structured blocker” (The Journal of Biological Chemistry, 2018)
“And” between values parts separate entries of the source, which are not always exact repeats. Identical values can stand only once. “Also recorded” adds a separate entry of the source.

Legend:
WT hERG [1] = target: T1, WT hERG (Homo sapiens, UniProt Q12809); assay: Whole-cell patch-clamp recording of IhERG, WT hERG in HEK293 cells at 37 °C; assay type: cell-based
T1 construct: expressed in transfected cells
Text: (§1) A HEK293 cell line stably expressing WT hERG channels was kindly donated by Prof. Craig January ([51]). The pore helix (T623A and S624A) and S6 helix (F656A) alanine mutants, attenuated-inactivation mutants (N588K and S620T), and S5 mutant F557L were all generated and used as described previously ([3], [18], [41], [52]). The HEK293 cell line stably expressing the hERG S6 helix mutant Y652A was used in this study as described previously ([52]).
(§2) HEK293 cells stably or transiently expressing hERG constructs were maintained as described previously ([18], [19], [52]). Cells were plated in 40-mm Petri dishes at least 48 h before transfection and incubated at 37 °C with 5% CO2. Cells were transfected either with Lipofectamine^TM 2000 (Invitrogen) or Lipofectamine LTX (Invitrogen) following the manufacturer's instructions. The amount of hERG construct DNA that was transfected varied between 0.1 and 1.0 μg depending on the level of functional expression. 0.15 μg of CD8 was cotransfected as a transfection marker, and successfully transfected cells were identified using Dynabeads® (Invitrogen). Cells were plated on sterilized glass shards in 40-mm Petri dishes and incubated at 37 °C (5% CO2) at least 24 h before electrophysiological recording; this was to allow time for cell recovery and hERG construct expression.
For IhERG recordings, glass shards containing plated cells were placed in a recording chamber mounted on an inverted microscope (Nikon Diaphot). The cells were superfused continuously with Tyrode's solution containing 140 mM NaCl, 4 mM KCl, 2.5 mM CaCl2, 1 mM MgCl2, 10 mM glucose, 5 mM HEPES (titrated to pH 7.4 with NaOH). As described previously ([18], [19]), a modified “high-K^+” version of this solution (containing 94 mM KCl and 50 mM NaCl) was used to obtain recordable currents from comparatively poorly expressed hERG mutants (T623A and F656A). Patch pipettes (Schott number 8250 glass, A-M Systems Inc.) were pulled (Narishige, PP 830) and polished (Narishige, MF 83) to final resistance values between 2 and 4 megaohms. The patch pipettes were filled with intracellular solutio, containing 130 mM KCl, 1 mM MgCl2, 5 mM EGTA, 5 mM MgATP, and 10 mM HEPES (titrated to pH 7.2 with KOH). Pipette resistance compensation was between 70 and 80%. Cavalli-2 ([30]), which was synthesized by Ascent Scientific (Abcam Ltd.), was dissolved in DMSO to produce 100 μM, 1 mM, and 10 mM stock solutions. Stock solutions were diluted either in standard or high-K^+ Tyrode's solution as appropriate to obtain final concentrations stated under “Results.” Solutions were preheated to 37 ± 1 °C and applied to single cells using a homemade, multibarreled superfusion system, enabling rapid superfusate exchange (<1 s) ([53]). Thus, measurements of IhERG were made at 37 ± 1 °C as described previously ([18], [19], [52], [54], [55]).
All IhERG recordings were made using an Axopatch 200B amplifier (Axon Instruments, now Molecular Devices) and a CV203BU head stage. Data were acquired using a Digidata 1320 interface (Axon Instruments, now Molecular Devices). Data digitization rates were between 10 and 25 kHz during all voltage protocols, and an appropriate bandwidth between 2 and 10 kHz was set on the amplifier. For WT hERG and most of the mutant channels studied, activating voltage commands to +20 mV were used with tail currents observed at either […] (for most mutants) or −120 mV (for T623A and F656A) ([18][–][20], [33]). The level of block of WT and mutant IhERG by Cavalli-2 was attained by repetitive protocol application for 5 min, and fractional inhibition of IhERG tails was measured. […]

N588K hERG = target: T2, N588K hERG (Homo sapiens, UniProt Q12809, N588K); assay: Whole-cell patch-clamp recording of IhERG, attenuated-inactivation mutant N588K; assay type: cell-based
T2 construct: expressed in transfected cells; host or cells: HEK293
Text: as §1, §2
(§3) For IhERG recordings, glass shards containing plated cells were placed in a recording chamber mounted on an inverted microscope (Nikon Diaphot). The cells were superfused continuously with Tyrode's solution containing 140 mM NaCl, 4 mM KCl, 2.5 mM CaCl2, 1 mM MgCl2, 10 mM glucose, 5 mM HEPES (titrated to pH 7.4 with NaOH). As described previously ([18], [19]), a modified “high-K^+” version of this solution (containing 94 mM KCl and 50 mM NaCl) was used to obtain recordable currents from comparatively poorly expressed hERG mutants (T623A and F656A). Patch pipettes (Schott number 8250 glass, A-M Systems Inc.) were pulled (Narishige, PP 830) and polished (Narishige, MF 83) to final resistance values between 2 and 4 megaohms. […]

S620T hERG = target: T3, S620T hERG (Homo sapiens, UniProt Q12809, S620T); assay: Whole-cell patch-clamp recording of IhERG, attenuated-inactivation mutant S620T; assay type: cell-based
T3 construct: expressed in transfected cells; host or cells: HEK293
Text: as §1
as §2, with “construct expression. […]” for “construct expression.”

T623A hERG = target: T4, T623A hERG (Homo sapiens, UniProt Q12809, T623A); assay: Whole-cell patch-clamp recording of IhERG, pore helix mutant T623A; assay type: cell-based
T4 construct: expressed in transfected cells; host or cells: HEK293
Text: as §1
as §2, with “construct expression. […]” for “construct expression.”

S624A hERG = target: T5, S624A hERG (Homo sapiens, UniProt Q12809, S624A); assay: Whole-cell patch-clamp recording of IhERG, pore helix mutant S624A; assay type: cell-based
T5 construct: expressed in transfected cells; host or cells: HEK293
Text: as §1
as §2, with “construct expression. […]” for “construct expression.”

Y652A hERG = target: T6, Y652A hERG (Homo sapiens, UniProt Q12809, Y652A); assay: Whole-cell patch-clamp recording of IhERG, S6 helix mutant Y652A; assay type: cell-based
T6 construct: expressed in transfected cells
Text: as §1, §2, §3

F656A hERG = target: T7, F656A hERG (Homo sapiens, UniProt Q12809, F656A); assay: Whole-cell patch-clamp recording of IhERG, S6 helix mutant F656A; assay type: cell-based
T7 construct: expressed in transfected cells; host or cells: HEK293
Text: as §1, §2, §3

F557L hERG = target: T8, F557L hERG (Homo sapiens, UniProt Q12809, F557L); assay: Whole-cell patch-clamp recording of IhERG, S5 mutant F557L; assay type: cell-based
T8 construct: expressed in transfected cells; host or cells: HEK293
Text: as §1, §2
The F557L hERG mutation was generated using the Quik Change® site-directed mutagenesis kit (Stratagene, La Jolla, CA). In brief, a pair of complementary oligonucleotide primers containing the mutation (forward primer sequence, 5′[…]-3′; reverse primer sequence, 5′[…]-3′; synthesized by Sigma-Genosys, Haverhill, UK) was used in a PCR (95 °C for 1 min, 60 °C for 1 min, and 68 °C for 16 min for 18 cycles) by using hERG in a modified pcDNA3.0 vector as a DNA template. A DpnI digest of the PCR mixture was then performed for 1 h at 37 °C. Competent DH5α Escherichia coli (Invitrogen) were transformed using standard procedures. The mutation was confirmed by sequencing of the entire ORF (Eurofins MWG Operon, Ebersberg, Germany). […]

WT hERG [2] = target: T1, WT hERG; assay: Whole-cell patch-clamp recording of IhERG, WT hERG in HEK293 cells at 37 °C; assay type: cell-based; remark: listed apart in the source
hERG = test system: hERG; parameters: method as in earlier work; conditions: HEK cells at room temperature; ref 30 (Cavalli et al.); cited from earlier work

T7 sequence (Q12809 whole entry F656A): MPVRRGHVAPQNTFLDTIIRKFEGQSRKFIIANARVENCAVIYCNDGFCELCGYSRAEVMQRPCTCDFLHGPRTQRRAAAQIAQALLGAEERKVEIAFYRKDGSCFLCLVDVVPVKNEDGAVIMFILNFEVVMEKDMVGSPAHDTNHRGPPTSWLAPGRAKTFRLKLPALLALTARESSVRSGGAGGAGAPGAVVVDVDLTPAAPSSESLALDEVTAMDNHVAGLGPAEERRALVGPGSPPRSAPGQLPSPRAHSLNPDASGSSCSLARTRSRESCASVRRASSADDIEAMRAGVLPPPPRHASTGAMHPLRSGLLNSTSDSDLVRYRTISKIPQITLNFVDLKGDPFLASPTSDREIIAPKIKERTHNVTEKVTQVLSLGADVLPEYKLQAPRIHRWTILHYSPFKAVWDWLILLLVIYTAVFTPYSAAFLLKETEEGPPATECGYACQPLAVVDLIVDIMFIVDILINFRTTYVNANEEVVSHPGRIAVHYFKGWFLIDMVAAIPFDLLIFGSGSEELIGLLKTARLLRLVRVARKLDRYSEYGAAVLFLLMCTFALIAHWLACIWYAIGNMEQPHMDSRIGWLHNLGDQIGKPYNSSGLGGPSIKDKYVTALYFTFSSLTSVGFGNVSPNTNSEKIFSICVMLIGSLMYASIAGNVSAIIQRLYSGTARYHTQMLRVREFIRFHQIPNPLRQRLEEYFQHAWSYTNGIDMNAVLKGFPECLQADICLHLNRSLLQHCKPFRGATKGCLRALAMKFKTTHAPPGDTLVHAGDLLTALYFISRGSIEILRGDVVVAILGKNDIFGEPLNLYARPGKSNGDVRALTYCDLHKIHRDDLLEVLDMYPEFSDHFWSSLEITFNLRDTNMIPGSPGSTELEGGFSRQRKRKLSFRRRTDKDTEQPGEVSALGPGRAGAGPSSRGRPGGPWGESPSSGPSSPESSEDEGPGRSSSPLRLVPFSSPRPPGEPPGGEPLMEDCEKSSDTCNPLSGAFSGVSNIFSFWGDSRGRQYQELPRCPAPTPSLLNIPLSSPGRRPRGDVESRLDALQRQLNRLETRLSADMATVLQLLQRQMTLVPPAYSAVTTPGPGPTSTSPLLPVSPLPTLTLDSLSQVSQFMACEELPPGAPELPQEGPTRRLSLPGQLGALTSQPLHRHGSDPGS
T8 sequence (Q12809 whole entry F557L): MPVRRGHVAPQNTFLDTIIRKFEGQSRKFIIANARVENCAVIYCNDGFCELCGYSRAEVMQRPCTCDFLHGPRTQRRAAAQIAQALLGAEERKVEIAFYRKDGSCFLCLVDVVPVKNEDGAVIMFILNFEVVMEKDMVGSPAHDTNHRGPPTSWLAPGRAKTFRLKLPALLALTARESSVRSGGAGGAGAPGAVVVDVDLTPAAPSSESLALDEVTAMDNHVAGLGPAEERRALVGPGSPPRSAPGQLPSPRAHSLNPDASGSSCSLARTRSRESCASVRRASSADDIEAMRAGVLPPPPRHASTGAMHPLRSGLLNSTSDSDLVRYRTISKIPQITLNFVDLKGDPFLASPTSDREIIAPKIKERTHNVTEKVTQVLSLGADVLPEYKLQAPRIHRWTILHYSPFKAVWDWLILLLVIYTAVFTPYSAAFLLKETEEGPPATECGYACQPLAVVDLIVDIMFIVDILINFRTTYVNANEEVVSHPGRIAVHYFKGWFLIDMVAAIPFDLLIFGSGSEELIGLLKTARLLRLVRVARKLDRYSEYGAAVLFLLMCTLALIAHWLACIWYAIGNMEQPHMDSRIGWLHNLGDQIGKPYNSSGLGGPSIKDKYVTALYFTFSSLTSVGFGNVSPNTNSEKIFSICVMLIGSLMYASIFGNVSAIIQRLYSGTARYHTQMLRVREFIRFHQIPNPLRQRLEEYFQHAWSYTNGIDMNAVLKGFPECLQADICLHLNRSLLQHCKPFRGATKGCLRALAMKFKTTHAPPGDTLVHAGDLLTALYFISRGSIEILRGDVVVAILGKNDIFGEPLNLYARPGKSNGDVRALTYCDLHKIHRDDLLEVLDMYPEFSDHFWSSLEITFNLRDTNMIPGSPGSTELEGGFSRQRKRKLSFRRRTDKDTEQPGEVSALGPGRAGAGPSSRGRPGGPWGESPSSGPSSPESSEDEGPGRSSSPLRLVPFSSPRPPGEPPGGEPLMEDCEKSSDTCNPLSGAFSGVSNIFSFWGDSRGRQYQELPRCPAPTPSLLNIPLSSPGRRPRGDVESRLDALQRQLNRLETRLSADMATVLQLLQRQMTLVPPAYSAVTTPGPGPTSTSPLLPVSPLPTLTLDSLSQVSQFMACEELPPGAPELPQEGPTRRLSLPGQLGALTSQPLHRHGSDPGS
T2 sequence (Q12809 whole entry N588K): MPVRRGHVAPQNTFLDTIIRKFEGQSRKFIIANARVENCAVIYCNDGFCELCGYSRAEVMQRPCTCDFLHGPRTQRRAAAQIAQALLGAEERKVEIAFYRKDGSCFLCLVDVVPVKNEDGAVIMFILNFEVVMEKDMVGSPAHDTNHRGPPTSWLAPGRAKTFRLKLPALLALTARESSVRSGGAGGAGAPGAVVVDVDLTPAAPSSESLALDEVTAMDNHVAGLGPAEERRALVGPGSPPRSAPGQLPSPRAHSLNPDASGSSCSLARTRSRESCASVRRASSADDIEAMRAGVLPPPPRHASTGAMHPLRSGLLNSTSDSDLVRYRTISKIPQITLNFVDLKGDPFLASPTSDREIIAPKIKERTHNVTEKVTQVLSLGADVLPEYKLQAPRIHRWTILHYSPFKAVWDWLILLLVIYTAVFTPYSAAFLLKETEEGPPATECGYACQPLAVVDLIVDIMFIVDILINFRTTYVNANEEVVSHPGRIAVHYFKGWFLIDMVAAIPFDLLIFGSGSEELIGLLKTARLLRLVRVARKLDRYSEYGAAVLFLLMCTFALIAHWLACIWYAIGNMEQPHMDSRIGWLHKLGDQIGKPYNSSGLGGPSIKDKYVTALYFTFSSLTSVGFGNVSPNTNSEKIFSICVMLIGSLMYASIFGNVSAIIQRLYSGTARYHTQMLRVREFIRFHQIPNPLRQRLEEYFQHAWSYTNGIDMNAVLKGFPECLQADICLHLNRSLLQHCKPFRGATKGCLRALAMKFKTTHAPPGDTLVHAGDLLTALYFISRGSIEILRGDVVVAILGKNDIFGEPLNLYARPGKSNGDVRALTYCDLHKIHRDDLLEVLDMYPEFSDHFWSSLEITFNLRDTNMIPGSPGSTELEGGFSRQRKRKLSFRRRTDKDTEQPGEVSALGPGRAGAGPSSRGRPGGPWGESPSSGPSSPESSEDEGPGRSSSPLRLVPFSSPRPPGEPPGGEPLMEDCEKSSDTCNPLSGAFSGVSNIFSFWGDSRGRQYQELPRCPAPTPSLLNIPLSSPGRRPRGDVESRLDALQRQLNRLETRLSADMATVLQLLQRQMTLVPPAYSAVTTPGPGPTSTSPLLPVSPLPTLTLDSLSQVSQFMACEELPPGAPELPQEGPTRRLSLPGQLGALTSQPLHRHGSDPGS
T3 sequence (Q12809 whole entry S620T): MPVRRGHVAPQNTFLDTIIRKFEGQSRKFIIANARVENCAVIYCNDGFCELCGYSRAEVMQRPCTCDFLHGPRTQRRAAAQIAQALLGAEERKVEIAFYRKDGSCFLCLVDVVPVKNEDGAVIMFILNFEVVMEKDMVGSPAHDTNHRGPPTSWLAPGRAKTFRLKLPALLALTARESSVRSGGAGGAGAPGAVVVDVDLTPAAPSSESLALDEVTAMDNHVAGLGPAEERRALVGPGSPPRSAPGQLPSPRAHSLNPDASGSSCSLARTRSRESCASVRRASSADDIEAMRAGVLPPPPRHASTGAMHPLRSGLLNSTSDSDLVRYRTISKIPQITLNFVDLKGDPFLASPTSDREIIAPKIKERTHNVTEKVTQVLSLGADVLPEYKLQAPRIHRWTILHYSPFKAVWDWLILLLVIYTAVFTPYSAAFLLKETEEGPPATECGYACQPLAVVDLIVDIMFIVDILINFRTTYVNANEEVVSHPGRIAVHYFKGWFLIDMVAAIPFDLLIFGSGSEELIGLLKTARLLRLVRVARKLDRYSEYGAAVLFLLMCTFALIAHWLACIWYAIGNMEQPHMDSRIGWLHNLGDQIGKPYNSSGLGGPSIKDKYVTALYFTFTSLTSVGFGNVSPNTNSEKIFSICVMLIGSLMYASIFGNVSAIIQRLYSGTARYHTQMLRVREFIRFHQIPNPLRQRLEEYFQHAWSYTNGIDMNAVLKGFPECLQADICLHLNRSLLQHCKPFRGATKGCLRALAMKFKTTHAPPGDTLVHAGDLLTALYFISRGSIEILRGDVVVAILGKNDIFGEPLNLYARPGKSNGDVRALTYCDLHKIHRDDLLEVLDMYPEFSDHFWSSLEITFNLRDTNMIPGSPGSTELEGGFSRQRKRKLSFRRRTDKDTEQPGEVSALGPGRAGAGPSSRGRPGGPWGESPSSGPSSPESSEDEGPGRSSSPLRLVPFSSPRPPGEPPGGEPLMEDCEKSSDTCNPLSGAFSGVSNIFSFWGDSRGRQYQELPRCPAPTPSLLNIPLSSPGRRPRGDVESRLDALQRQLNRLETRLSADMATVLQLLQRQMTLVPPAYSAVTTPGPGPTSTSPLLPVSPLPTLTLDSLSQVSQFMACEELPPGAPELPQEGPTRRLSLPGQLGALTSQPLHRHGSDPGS

## c1ccc(CCCNCCC(c2ccccc2)c2ccccc2)cc1 [Cavalli-2]
WT hERG [1]; 30 nM
  k (slope) of IhERG activation in the presence of compound: 5.0 ± 1.5 and 5.03 ± 1.50 and 4.8 ± 1.1
  k of IhERG inactivation in the presence of compound: 19.9 ± 1.1 and 20.1 ± 1.3
WT hERG [1]; 30 nM vs control
  ΔV0.5 of activation: -4.68 mV
WT hERG [1]; 30 nM, +40 mV after 2-ms step to −120 mV, control 1.4 ± 0.2 ms
  inactivation τ in the presence of compound: 1.6 ± 0.5 ms
WT hERG [1]; 30 nM, test depolarizations −30 to +60 mV
  voltage dependence of fractional inhibition of WT IhERG: voltage-dependent over the tested range
WT hERG [1]; 30 nM, three-step protocol 0/+40/0 mV
  fractional inhibition of IhERG during +40-mV phase vs 0-mV phases: significantly reduced
WT hERG [1]; KD at +60 mV vs 0 mV
  δ value (Woodhull analysis): 0.2
WT hERG [1]; human, HEK293 cells stably expressing WT hERG, pH 7.4, WT-2, inward IhERG tails, voltage step −120 mV, 94 mM K+
  IC50 at 5 min: 17.5 nM
WT hERG [1]; human, HEK293 cells stably expressing WT hERG, pH 7.4, washout after 30 nM, five cells, read-out: recovery on washout, of control amplitude
  recovery at 30 nM: 59.5 ± 4.1%
N588K hERG; N588K vs WT-1
  Potency reduction compared with its WT-control (fold WT IC50): 15 fold and 15.3 fold
N588K hERG; human, HEK293 cells expressing N588K hERG, pH 7.4, 300 nM
  inhibition at 5 min, 0.3 µM: < 50%
N588K hERG; human, HEK293 cells expressing N588K hERG, pH 7.4, N588K, −40 mV, 4 mM K+
  IC50 at 5 min: 544 nM
S620T hERG; S620T vs WT-1
  Potency reduction compared with its WT-control (fold WT IC50): 54 fold and 53.8 fold
S620T hERG; human, HEK293 cells expressing S620T hERG, pH 7.4, S620T, −40 mV, 4 mM K+
  IC50 at 5 min: 1920 nM
T623A hERG; T623A vs WT-2
  Potency reduction compared with its WT-control (fold WT IC50): 16 fold and 16.1 fold
T623A hERG; human, HEK293 cells expressing T623A hERG, pH 7.4, T623A, −120 mV, 94 mM K+
  IC50 at 5 min: 281 nM
S624A hERG; S624A vs WT-1
  Potency reduction compared with its WT-control (fold WT IC50): 7 fold and 7.4 fold
S624A hERG; human, HEK293 cells expressing S624A hERG, pH 7.4, S624A, −40 mV, 4 mM K+
  IC50 at 5 min: 262 nM
Y652A hERG; 300 nM, −20 to +40 mV
  voltage dependence of Y652A IhERG tail inhibition: eliminated voltage dependence of inhibition; also recorded: no significant voltage dependence
Y652A hERG; Y652A vs WT-1
  Potency reduction compared with its WT-control (fold WT IC50): 17 fold and 16.7 fold
Y652A hERG; human, HEK293 cells stably expressing Y652A hERG, pH 7.4, Y652A, −40 mV, 4 mM K+
  IC50 at 5 min: 594 nM
F656A hERG; 1 μM, −120 mV, high K+
  reduction of F656A IhERG: ~40%
F656A hERG; F656A vs WT-2
  Potency reduction compared with its WT-control (fold WT IC50): 75 fold and 75.1 fold
F656A hERG; human, HEK293 cells expressing F656A hERG, pH 7.4, F656A, −120 mV, 94 mM K+
  IC50 at 5 min: 1320 nM
F557L hERG; 300 nM, −20 to +40 mV
  voltage dependence of F557L IhERG tail inhibition: eliminated voltage dependence of inhibition; also recorded: no significant voltage dependence; also recorded: nearly abolished
F557L hERG; F557L vs WT-1
  Potency reduction compared with its WT-control (fold WT IC50): 10 fold and 9.5 fold
F557L hERG; human, HEK293 cells expressing F557L hERG, pH 7.4, F557L, −40 mV, 4 mM K+
  IC50 at 5 min: 339 nM
WT hERG [2]; 30 nM, standard protocol, tails at −40 mV, 4 mM K+
  IhERG tail inhibition: 50.2 ± 2.0%
WT hERG [2]; 30 nM, tails at −40 mV
  change in t½ of IhERG deactivation: No significant change
WT hERG [2]; WT-1, IhERG tails, voltage step −40 mV, 4 mM K+, HEK293, 37 °C
  IC50: 35.6 nM
WT hERG [2]; human, HEK293 cells stably expressing WT hERG, pH 7.4, 30 nM, AP voltage clamp, read-out: inhibition of peak IhERG during ventricular action potential waveform
  inhibition at 5 min, 0.03 µM: 42.3 ± 6.7%
WT hERG [2]; human, HEK293 cells stably expressing WT hERG, pH 7.4, 30 nM, standard protocol, tails at −40 mV, 4 mM K+, read-out: IhERG tail inhibition
  inhibition at 5 min, 30 nM: ~50%
WT hERG [2]; human, HEK293 cells stably expressing WT hERG, pH 7.4, WT-1, IhERG tails, voltage step −40 mV, 4 mM K+, HEK293, 37 °C
  IC50 at 5 min: 36 nM
hERG
  IC50: 17 nM
